Assay results reported in patent US12497386B2, “Estrogen receptor-modulating compounds” (RADIUS PHARMACEUTICALS, INC., priority 2018, dated 2025).

Assays:
[1] = tested on: E2-induced increase in uterine weight in immature rats; experiment: Immature Rat Uterine Assay; type: in vivo, Sprague-Dawley rat; conditions: oral dose of 3 mg/kg in combination with E2 (0.01 mg/kg), once daily for three consecutive days
Protocol: Immature Rat Uterine Assay
Sprague-Dawley rat pups were weaned at 19 days of age, randomized into groups (n=6), and administered vehicle (aqueous 20% HPBCD, 10% PEG400 in H2O), E2 (0.01 mg/kg), test compounds (0.1 mg/kg-3 mg/kg) in combination with E2 (0.01 mg/kg), either by subcutaneous injection or by oral gavage, once daily for three consecutive days. Twenty-four hours after the final dose, all animals were killed by carbon dioxide inhalation. Body weights and wet uterine weights were recorded for each animal. GraphPadPrism 6.0 software was used to analyze data.

MCF-7 cells = experiment: MCF-7 Proliferation Inhibition Assay; type: cell-based, human; conditions: Homo sapiens, MCF7, 168 h, 10 pM dose of E2, 7 days incubation, CellTiterGlo viability
Protocol: Proliferation Assay in MCF-7 and T47D Cells
MCF-7 and T47D cells were stripped for 3 days in phenol red-free RPMI1640 media containing 10% charcoal-stripped fetal bovine serum (CS-FBS) and 1% Penicillin/streptomycin (P/S). Cells (volume of 90 μl/well) were seeded in 96 well plates at a density of 2500 cells/well for MCF-7 cells and 1500 cells/well for T47D cells. On the following day, plates were treated with the test compounds (10× concentration in media, volume of 10 μl/well added) both in the absence and in the presence of two doses of E2 (10 pM and 1 nM). The cells were incubated with test compounds for 7 days. The viability of the cells was assessed using CellTiterGlo (Promega, Cat #G7573) according to the manufacturer's instructions. Growth inhibition curves and IC50 values were calculated using the GraphPadPrism 6.0 software. Data values shown in Table 1 were obtained using the 10 pM dose of E2.

SMILES	IC50 (MCF-7 cells) [nM]	wet uterine weight [1]
Cc1ccccc1-c1c(F)c2cc(O)ccc2n1Cc1ccc(CCNCC2CC2)cc1 [Compound D-39, 1-(4-(2-((Cyclopropylmethyl)amino)ethyl)benzyl)-3-fluoro-2-(o-tolyl)-1H-indol-5-ol]	< 1	–
COc1ccc(-c2c(C)c3cc(O)ccc3n2Cc2ccc(CCNC3CC3)cc2)cc1 [Compound D-02, 1-(4-(2-(Cyclopropylamino)ethyl)benzyl)-2-(4-methoxyphenyl)-3-methyl-1H-indol-5-ol]	1 to 10	–
CCNCCc1ccc([C@@H]2c3ccc(O)cc3CC[C@@H]2c2ccccc2)cc1 [LA-18, (5R,6S)-5-(4-(2-(Ethylamino)ethyl)phenyl)-6-phenyl-5,6,7,8-tetrahydronaphthalen-2-ol]	< 1	–
COc1ccc(-c2c(F)c3cc(O)ccc3n2Cc2ccc(CCNCCCF)cc2)c(C)c1 [Compound D-104, 3-Fluoro-1-(4-(2-((3-fluoropropyl)amino)ethyl)benzyl)-2-(4-methoxy-2-methylphenyl)-1H-indol-5-ol]	< 1	–
COc1ccc(-c2c(C)c3cc(O)ccc3n2Cc2ccc(CCNC(C)C)cc2)cc1 [Compound D-08, 1-(4-(2-(Isopropylamino)ethyl)benzyl)-2-(4-methoxyphenyl)-3-methyl-1H-indol-5-ol]	1 to 10	–
Cc1cc(F)ccc1-c1c(F)c2cc(O)ccc2n1Cc1ccc(CCNC2CC2)cc1 [Compound D-36, 1-(4-(2-(Cyclopropylamino)ethyl)benzyl)-3-fluoro-2-(4-fluoro-2-methylphenyl)-1H-indol-5-ol]	< 1	–
COc1ccc(-c2c(F)c3cc(O)ccc3n2Cc2ccc(CCNC3CC3)cc2)cc1 [Compound D-15, 1-(4-(2-(Cyclopropylamino)ethyl)benzyl)-3-fluoro-2-(4-methoxyphenyl)-1H-indol-5-ol]	< 1	–
CC(C)c1ccc(C2CCc3cc(O)ccc3C2c2ccc(CCNCC3CC3)cc2)cc1 (stereo not drawn) [LA-33, 5-(4-(2-((Cyclopropylmethyl)amino)ethyl)phenyl)-6-(4-isopropylphenyl)-5,6,7,8-tetrahydronaphthalen-2-ol]	< 1	–

The next lines start with results.

IC50 (MCF-7 cells) [nM]	SMILES	wet uterine weight [1]
< 1	Cc1ccccc1-c1c(F)c2c3cn[nH]c3ccc2n1Cc1ccc(CCNCCCF)cc1 [Compound D-102, 3-Fluoro-N-(4-((8-fluoro-7-(o-tolyl)pyrrolo[3,2-e]indazol-6(3H)-yl)methyl)phenethyl)propan-1-amine]	suppressed wet uterine weight to baseline
< 1	Cc1ccccc1-c1c(F)c2cc(O)ccc2n1Cc1ccc(CCNCCCF)cc1 [Compound D-69, 3-Fluoro-1-(4-(2-((3-fluoropropyl)amino)ethyl)benzyl)-2-(o-tolyl)-1H-indol-5-ol]	–
< 1	Cc1ccccc1-c1c(F)c2c3cn[nH]c3ccc2n1Cc1ccc(CCNCC2CC2)cc1 [Compound D-88, N-(Cyclopropylmethyl)-2-(4-((8-fluoro-7-(o-tolyl)pyrrolo[3,2-e]indazol-6(3H)-yl)methyl)phenyl)ethan-1-amine]	–
< 1	Cc1ccccc1-c1c(F)c2cc(O)ccc2n1Cc1ccc(CCNC2CCC2)cc1 [Compound D-46, 1-(4-(2-(Cyclobutylamino)ethyl)benzyl)-3-fluoro-2-(o-tolyl)-1H-indol-5-ol]	–
< 1	Cc1cccc(C)c1-c1c(F)c2cc(O)ccc2n1Cc1ccc(CCNC2CCC2)cc1 [Compound D-50, 1-(4-(2-(Cyclobutylamino)ethyl)benzyl)-2-(2,6-dimethylphenyl)-3-fluoro-1H-indol-5-ol]	–
< 1	CCNCCc1ccc(Cn2c(-c3c(C)cccc3C)c(F)c3cc(O)ccc32)cc1 [Compound D-78, 2-(2,6-Dimethylphenyl)-1-(4-(2-(ethylamino)ethyl)benzyl)-3-fluoro-1H-indol-5-ol]	–
< 1	Cc1ccccc1C1=C(Cc2ccc(CCNC3CC3)cc2)c2ccc(O)cc2OCC1 [Bx-06, 5-(4-(2-(Cyclopropylamino)ethyl)benzyl)-4-(o-tolyl)-2,3-dihydrobenzo[b]oxepin-8-ol]	–
< 1	Oc1ccc2c(c1)c(F)c(-c1ccccc1C(F)(F)F)n2Cc1ccc(CCNC2CC2)cc1 [Compound D-33, 1-(4-(2-(Cyclopropylamino)ethyl)benzyl)-3-fluoro-2-(2-(trifluoromethyl)phenyl)-1H-indol-5-ol]	–
< 1	Oc1ccc2c(c1)c(F)c(-c1ccccc1C(F)(F)F)n2Cc1ccc(CCNCC2CC2)cc1 [Compound D-40, 1-(4-(2-((Cyclopropylmethyl)amino)ethyl)benzyl)-3-fluoro-2-(2-(trifluoromethyl)phenyl)-1H-indol-5-ol]	–
< 1	Cc1cc(O)ccc1-c1c(F)c2cc(O)ccc2n1Cc1ccc(CCNC2CC2)cc1 [Compound D-52, 1-(4-(2-(Cyclopropylamino)ethyl)benzyl)-3-fluoro-2-(4-hydroxy-2-methylphenyl)-1H-indol-5-ol]	–
< 1	Cc1ccccc1[C@H]1CCc2cc(O)ccc2[C@H]1c1ccc(CCNCC2CC2)cc1 [LA-22, (5R,6S)-5-(4-(2-((cyclopropylmethyl)amino)ethyl)phenyl)-6-(o-tolyl)-5,6,7,8-tetrahydronaphthalen-2-ol]	–
< 1	Cc1ccccc1-c1sc2cc(O)ccc2c1Oc1ccc(CCNCC2CC2)cc1 [BT-12, 3-(4-(2-((Cyclopropylmethyl)amino)ethyl)phenoxy)-2-(o-tolyl)benzo[b]thiophen-6-ol]	–
